From patent US10981911B2, “Imidazopyrrolopyridine as inhibitors of the JAK family of kinases” (Janssen Pharmaceutica NV, priority 2016, dated 2021)

Assays:
Format in all cases: biochemical
[1] = biological target: JAK2-JH1JH2 (Homo sapiens (Human), UniProt O60674); test: Enzymatic inhibition assay (RapidFire HTMS), JAK2; conditions: 30 μM ATP, 40 μM substrate
Summary of the method: (§1)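 Quenched with 0.5% TFA plus internal-standard peptide; phosphorylated product quantified by RapidFire C4 SPE–ESI-MS, 11-point 1:3 or 1:4 dilutions in duplicate.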

[2] = biological target: Tyk2-JH1JH2 (Homo sapiens (Human), UniProt P29597, C1142A/C936A); test: Enzymatic inhibition assay (RapidFire HTMS), Tyk2; conditions: 50 μM ATP, 200 μM substrate
Summary of the method: as §1

[3] = biological target: JAK3-JH1JH2 (Homo sapiens (Human), UniProt P52333); test: Enzymatic inhibition assay (RapidFire HTMS), JAK3; conditions: 150 μM ATP, 40 μM substrate
Summary of the method: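 JAK3 JH1JH2 reaction incubated 45 min at 25 °C, then quenched with 0.5% TFA containing 0.15 μM internal standard peptide. Phosphopeptide product measured by RapidFire C4 SPE–ESI MS (positive mode); inhibition from product decrease versus uninhibited enzyme, 11-point 1:3 or 1:4 dilutions in duplicate.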

[4] = biological target: JAK1-JH1JH2 (Homo sapiens (Human), UniProt P23458); test: Enzymatic inhibition assay (RapidFire HTMS), JAK1; conditions: 12.5 μM ATP, 200 μM substrate; read-out: JAK1-JH2JH1 IC50
Summary of the method: as §1

Chain of JAK2-JH1JH2 (O60674 532-1132): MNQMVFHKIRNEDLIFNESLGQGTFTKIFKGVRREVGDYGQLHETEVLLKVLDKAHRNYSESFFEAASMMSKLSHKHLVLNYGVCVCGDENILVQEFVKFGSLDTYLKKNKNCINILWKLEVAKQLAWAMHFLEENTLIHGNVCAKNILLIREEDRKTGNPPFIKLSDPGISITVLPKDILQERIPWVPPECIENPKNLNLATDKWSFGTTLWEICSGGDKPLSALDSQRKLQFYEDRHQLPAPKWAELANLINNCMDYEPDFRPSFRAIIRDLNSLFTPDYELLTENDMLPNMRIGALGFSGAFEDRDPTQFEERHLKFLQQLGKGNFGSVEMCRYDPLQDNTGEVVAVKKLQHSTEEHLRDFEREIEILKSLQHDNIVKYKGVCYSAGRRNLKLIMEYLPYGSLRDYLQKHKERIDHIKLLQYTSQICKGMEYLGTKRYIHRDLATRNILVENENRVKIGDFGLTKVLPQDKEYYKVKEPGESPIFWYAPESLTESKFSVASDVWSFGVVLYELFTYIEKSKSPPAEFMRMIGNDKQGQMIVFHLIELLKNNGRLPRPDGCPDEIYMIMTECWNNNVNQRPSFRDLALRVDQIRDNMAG
Chain of JAK1-JH1JH2 (P23458 574-1154): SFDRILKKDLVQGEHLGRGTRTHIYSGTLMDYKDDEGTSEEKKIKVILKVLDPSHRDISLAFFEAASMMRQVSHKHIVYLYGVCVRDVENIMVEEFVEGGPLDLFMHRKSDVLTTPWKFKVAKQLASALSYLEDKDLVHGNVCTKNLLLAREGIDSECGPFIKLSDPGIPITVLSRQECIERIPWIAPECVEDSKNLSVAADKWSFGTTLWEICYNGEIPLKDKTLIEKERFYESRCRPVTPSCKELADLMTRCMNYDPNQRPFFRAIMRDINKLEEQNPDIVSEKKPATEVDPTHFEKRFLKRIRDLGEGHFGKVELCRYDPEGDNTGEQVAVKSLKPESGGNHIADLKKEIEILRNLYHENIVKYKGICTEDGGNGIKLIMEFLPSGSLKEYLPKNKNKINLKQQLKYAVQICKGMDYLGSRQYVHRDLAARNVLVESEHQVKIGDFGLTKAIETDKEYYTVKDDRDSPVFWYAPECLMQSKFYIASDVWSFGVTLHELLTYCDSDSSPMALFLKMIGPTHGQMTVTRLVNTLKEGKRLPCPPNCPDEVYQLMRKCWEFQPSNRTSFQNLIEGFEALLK
Chain of Tyk2-JH1JH2 (P29597 580-1182 C936A/C1142A): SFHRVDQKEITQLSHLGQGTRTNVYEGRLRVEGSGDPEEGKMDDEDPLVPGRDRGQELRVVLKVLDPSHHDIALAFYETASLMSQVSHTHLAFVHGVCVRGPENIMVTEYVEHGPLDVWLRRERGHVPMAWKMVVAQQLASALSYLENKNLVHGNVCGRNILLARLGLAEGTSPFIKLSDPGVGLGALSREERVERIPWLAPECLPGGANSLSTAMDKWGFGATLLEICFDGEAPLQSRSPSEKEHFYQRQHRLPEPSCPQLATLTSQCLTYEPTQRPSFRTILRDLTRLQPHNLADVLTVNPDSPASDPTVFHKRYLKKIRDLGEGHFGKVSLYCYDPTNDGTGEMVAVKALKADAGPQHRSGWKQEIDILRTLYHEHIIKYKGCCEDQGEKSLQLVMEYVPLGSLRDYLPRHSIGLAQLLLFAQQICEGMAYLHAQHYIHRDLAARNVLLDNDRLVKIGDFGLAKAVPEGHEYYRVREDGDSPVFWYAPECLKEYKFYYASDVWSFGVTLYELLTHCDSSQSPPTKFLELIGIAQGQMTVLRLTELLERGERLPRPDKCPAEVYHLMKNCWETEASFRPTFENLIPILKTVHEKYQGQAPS
Chain of JAK3-JH1JH2 (P52333 512-1124): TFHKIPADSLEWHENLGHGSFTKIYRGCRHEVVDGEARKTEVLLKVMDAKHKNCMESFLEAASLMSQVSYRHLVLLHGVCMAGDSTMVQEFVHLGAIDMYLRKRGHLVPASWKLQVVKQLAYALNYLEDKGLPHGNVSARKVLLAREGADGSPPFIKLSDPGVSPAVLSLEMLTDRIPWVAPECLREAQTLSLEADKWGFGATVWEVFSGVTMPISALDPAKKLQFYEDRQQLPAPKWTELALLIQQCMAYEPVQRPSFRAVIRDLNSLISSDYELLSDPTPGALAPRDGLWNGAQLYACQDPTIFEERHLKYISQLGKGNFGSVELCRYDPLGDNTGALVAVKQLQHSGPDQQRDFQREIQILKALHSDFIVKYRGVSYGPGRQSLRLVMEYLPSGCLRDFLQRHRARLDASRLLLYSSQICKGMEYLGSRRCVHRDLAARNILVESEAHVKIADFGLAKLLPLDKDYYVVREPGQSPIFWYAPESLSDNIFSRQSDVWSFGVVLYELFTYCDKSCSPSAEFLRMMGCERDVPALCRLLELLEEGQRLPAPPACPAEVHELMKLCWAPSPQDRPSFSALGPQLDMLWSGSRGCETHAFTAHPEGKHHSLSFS

| IC50 [1] [nM] | IC50 [2] [nM] | IC50 [3] [nM] | IC50 [4] [nM] | SMILES |
| --- | --- | --- | --- | --- |
| 20.5 | 12.1 | 264 | 0.5 | N#CC[C@H]1CC[C@H](n2c(CNC(=O)CC3CC3)nc3cnc4[nH]ccc4c32)CC1 [Ex. 94, N-((1-((1r,4r)-4-(Cyanomethyl)cyclohexyl)-1,6-dihydroimidazo[4,5-d]pyrrolo[2,3-b]pyridin-2-yl)methyl)-2-cyclopropylacetamide] |
| 29.7 | 6.7 | 182 | 0.5 | CC(C)(C)C/C(=N/O)NCc1nc2cnc3[nH]ccc3c2n1[C@H]1CC[C@H](CC#N)CC1 [Ex. 101] |
| 14.3 | 11.2 | 149 | 0.6 | N#CC[C@H]1CC[C@H](n2c(CC(=O)NCC(O)CO)nc3cnc4[nH]ccc4c32)CC1 (stereo partly shown) [Ex. 106, 2-(1-((1r,4r)-4-(Cyanomethyl)cyclohexyl)-1,6-dihydroimidazo[4,5-d]pyrrolo[2,3-b]pyridin-2-yl)-N-(2,3-dihydroxypropyl)acetamide] |
| 7.5 | 11.3 | 135 | 0.6 | N#CC[C@H]1CC[C@H](n2c(COC(=O)Nc3ccccc3)nc3cnc4[nH]ccc4c32)CC1 [Ex. 109, (1-((1r,4r)-4-(Cyanomethyl)cyclohexyl)-1,6-dihydroimidazo[4,5-d]pyrrolo[2,3-b]pyridin-2-yl)methyl Phenylcarbamate] |
| 29 | 17.4 | 416 | 0.6 | N#CC[C@H]1CC[C@H](n2c(CN/C(=N\O)C3CC3)nc3cnc4[nH]ccc4c32)CC1 [Ex. 110, (EZ)—N-((1-((1r,4r)-4-(Cyanomethyl)cyclohexyl)-1,6-dihydroimidazo[4,5-d]pyrrolo[2,3-b]pyridin-2-yl)methyl)-N′-hydroxycyclopropanecarboximidamide] |
| 3.6 | 40.8 | 161 | 0.6 | N#CC[C@H]1CC[C@H](n2c(CO/N=C(\N)CC3CC3)nc3cnc4[nH]ccc4c32)CC1 [Ex. 112, (Z)—N-((1-((1r,4r)-4-(Cyanomethyl)cyclohexyl)-1,6-dihydroimidazo[4,5-d]pyrrolo[2,3-b]pyridin-2-yl)methoxy)-2-cyclopropylacetimidamide] |
| 10.2 | 11.2 | 322 | 0.6 | COCc1nc2cnc3[nH]ccc3c2n1[C@H]1CC[C@H](CC#N)CC1 [Ex. 113, 2-((1r,4r)-4-(2-(Methoxymethyl)imidazo[4,5-d]pyrrolo[2,3-b]pyridin-1(6H)-yl)cyclohexyl)acetonitrile] |
| 4.8 | 12.7 | 102 | 0.6 | N#CC[C@H]1CC[C@H](n2c(C(=O)NCCO)nc3cnc4[nH]ccc4c32)CC1 [Ex. 114, 1-((1r,4r)-4-(Cyanomethyl)cyclohexyl)-N-(2-hydroxyethyl)-1,6-dihydroimidazo[4,5-d]pyrrolo[2,3-b]pyridine-2-carboxamide] |
| 86.7 | 50.9 | 1190 | 0.6 | CC(C)(O)CC(=O)NCc1nc2cnc3[nH]ccc3c2n1[C@H]1CC[C@H](CC#N)CC1 [Ex. 116, N-((1-((1r,4r)-4-(Cyanomethyl)cyclohexyl)-1,6-dihydroimidazo[4,5-d]pyrrolo[2,3-b]pyridin-2-yl)methyl)-3-hydroxy-3-methylbutanamide] |
| 8.8 | 15.7 | 117 | 0.7 | N#CC[C@H]1CC[C@H](n2c(-c3cncs3)nc3cnc4[nH]ccc4c32)CC1 [Ex. 119, 2-((1r,4r)-4-(2-(Thiazol-5-yl)imidazo[4,5-d]pyrrolo[2,3-b]pyridin-1(6H)-yl)cyclohexyl)acetonitrile] |
| 16 | 19.1 | 228 | 0.7 | COCCNC(=O)Cc1nc2cnc3[nH]ccc3c2n1[C@H]1CC[C@H](CC#N)CC1 [Ex. 120, 2-(1-((1r,4r)-4-(Cyanomethyl)cyclohexyl)-1,6-dihydroimidazo[4,5-d]pyrrolo[2,3-b]pyridin-2-yl)-N-(2-methoxyethyl)acetamide] |

The remaining lines, values behind:

| SMILES | IC50 [1] [nM] | IC50 [2] [nM] | IC50 [3] [nM] | IC50 [4] [nM] |
| --- | --- | --- | --- | --- |
| CS(=O)(=O)c1ccc(-c2ccc(-c3nc4cnc5[nH]ccc5c4n3[C@H]3CC[C@H](CC#N)CC3)cc2)cc1 [Ex. 91, 2-((1r,4r)-4-(2-(4′-(Methylsulfonyl)-[1,1′-biphenyl]-4-yl)imidazo[4,5-d]pyrrolo[2,3-b]pyridin-1(6H)-yl)cyclohexyl)acetonitrile] | 30.1 | 35.5 | 851 | 0.4 |
| N#CC[C@H]1CC[C@H](n2c(-c3ccc(C(=O)c4ccccc4)cc3)nc3cnc4[nH]ccc4c32)CC1 [Ex. 92, 2-((1r,4r)-4-(2-(4-Benzoylphenyl)imidazo[4,5-d]pyrrolo[2,3-b]pyridin-1(6H)-yl)cyclohexyl)acetonitrile] | 11.7 | 33.6 | 874 | 0.4 |
| CC(C)(O)C1CCN(C(=O)Cc2nc3cnc4[nH]ccc4c3n2[C@H]2CC[C@H](CC#N)CC2)CC1 [Ex. 93, 2-((1r,4r)-4-(2-(2-(4-(2-Hydroxypropan-2-yl)piperidin-1-yl)-2-oxoethyl)imidazo[4,5-d]pyrrolo[2,3-b]pyridin-1(6H)-yl)cyclohexyl)acetonitrile] | 12 | 4.5 | 181 | 0.5 |
| N#CC[C@H]1CC[C@H](n2c(CN/C(CC3CCCCC3)=N/O)nc3cnc4[nH]ccc4c32)CC1 [Ex. 95] | 0.6 | 1.4 | 18.7 | 0.5 |
| N#CC[C@H]1CC[C@H](n2c(-c3ccc(C#N)cc3)nc3cnc4[nH]ccc4c32)CC1 [Ex. 96, 4-(1-((1r,4r)-4-(Cyanomethyl)cyclohexyl)-1,6-dihydroimidazo[4,5-d]pyrrolo[2,3-b]pyridin-2-yl)benzonitrile] | 33.8 | 49.6 | 460 | 0.5 |
| N#CC[C@H]1CC[C@H](n2c(CNS(=O)(=O)c3ccc(C#N)cc3)nc3cnc4[nH]ccc4c32)CC1 [Ex. 97, 4-Cyano-N-((1-((1r,4r)-4-(cyanomethyl)cyclohexyl)-1,6-dihydroimidazo[4,5-d]pyrrolo[2,3-b]pyridin-2-yl)methyl)benzenesulfonamide] | 45.1 | 26.9 | 3880 | 0.5 |
| CSc1nccc(-c2nc3cnc4[nH]ccc4c3n2[C@H]2CC[C@H](CC#N)CC2)n1 [Ex. 98, 2-((1r,4r)-4-(2-(2-(Methylthio)pyrimidin-4-yl)imidazo[4,5-d]pyrrolo[2,3-b]pyridin-1(6H)-yl)cyclohexyl)acetonitrile] | 9.3 | 13 | 117 | 0.5 |
| C[Si](C)(C)CNC(=O)Cc1nc2cnc3[nH]ccc3c2n1[C@H]1CC[C@H](CC#N)CC1 [Ex. 99, 2-(1-((1r,4r)-4-(Cyanomethyl)cyclohexyl)-1,6-dihydroimidazo[4,5-d]pyrrolo[2,3-b]pyridin-2-yl)-N-((trimethylsilyl)methyl)acetamide] | 30.9 | 29.2 | 276 | 0.5 |
| N#CC[C@H]1CC[C@H](n2c(CC(=O)NCC(O)c3ccccc3)nc3cnc4[nH]ccc4c32)CC1 (stereo partly shown) [Ex. 102, 2-(1-((1r,4r)-4-(Cyanomethyl)cyclohexyl)-1,6-dihydroimidazo[4,5-d]pyrrolo[2,3-b]pyridin-2-yl)-N-(2-hydroxy-2-phenylethyl)acetamide] | 11.5 | 7.4 | 201 | 0.5 |
| N#CC[C@H]1CC[C@H](n2c(CC(=O)N3CCC(C#N)CC3)nc3cnc4[nH]ccc4c32)CC1 [Ex. 105, 1-(2-(1-((1r,4r)-4-(Cyanomethyl)cyclohexyl)-1,6-dihydroimidazo[4,5-d]pyrrolo[2,3-b]pyridin-2-yl)acetyl)piperidine-4-carbonitrile] | 19.4 | 6.9 | 204 | 0.6 |
| N#CC[C@H]1CC[C@H](n2c(CC(=O)N3CCC(F)(F)CC3)nc3cnc4[nH]ccc4c32)CC1 [Ex. 107, 2-((1r,4r)-4-(2-(2-(4,4-Difluoropiperidin-1-yl)-2-oxoethyl)imidazo[4,5-d]pyrrolo[2,3-b]pyridin-1(6H)-yl)cyclohexyl)acetonitrile] | 18.2 | 5.1 | 142 | 0.6 |
| N#CC[C@H]1CC[C@H](n2c(CC(=O)Nc3cccnc3)nc3cnc4[nH]ccc4c32)CC1 [Ex. 111, 2-(1-((1r,4r)-4-(Cyanomethyl)cyclohexyl)-1,6-dihydroimidazo[4,5-d]pyrrolo[2,3-b]pyridin-2-yl)-N-(pyridin-3-yl)acetamide] | 4 | 6.3 | 68 | 0.6 |
| N#CC[C@H]1CC[C@H](n2c(-c3ccc(C#N)nc3)nc3cnc4[nH]ccc4c32)CC1 [Ex. 115, 5-(1-((1r,4r)-4-(Cyanomethyl)cyclohexyl)-1,6-dihydroimidazo[4,5-d]pyrrolo[2,3-b]pyridin-2-yl)picolinonitrile] | 73.2 | 86.2 | 754 | 0.6 |
| N#CC[C@H]1CC[C@H](n2c(CC(=O)Nc3ccncc3)nc3cnc4[nH]ccc4c32)CC1 [Ex. 118, 2-(1-((1r,4r)-4-(Cyanomethyl)cyclohexyl)-1,6-dihydroimidazo[4,5-d]pyrrolo[2,3-b]pyridin-2-yl)-N-(pyridin-4-yl)acetamide] | 3.5 | 5.4 | 50.5 | 0.7 |
